Laboratory results reported in ChEMBL document CHEMBL3301472, “MMV Malaria Box HIV and cytotoxicity screening”.

Key:
Type in all cases: toxicity, cell-based
[1] = MMV: MTT Cytotoxicity Assay Day 3 pi, U87-CD4-CCR5 cells, % cell death @ 5mM compound; settings: human, u87-cd4-ccr5, 5000 µM
[2] = MMV: MTT Cytotoxicity Assay Day 3 pi, U87-CD4-CXCR4 cells, % cell death @ 5mM compound; settings: human, u87-cd4-cxcr4, 5000 µM
[3] = MMV: MTT Cytotoxicity Assay Day 7 pi of Assay #6 (compound washed out Day 1 pi), U87-CD4-CCR5 cells, % cell death @ 5mM compound; settings: human, u87-cd4-ccr5, 5000 µM
[4] = MMV: MTT Cytotoxicity Assay Day 7 pi of Assay #7 (compound washed out Day 1 pi), U87-CD4-CXCR4 cells, % cell death @ 5mM compound; settings: human, u87-cd4-cxcr4, 5000 µM
[5] = MMV: MTT Cytotoxicity Assay Day 7 pi of Assay #10 (NO washout), U87-CD4-CCR5 cells, % cell death @ 5mM compound; settings: human, u87-cd4-ccr5, 5000 µM
[6] = MMV: MTT Cytotoxicity Assay Day 7 pi of Assay #11 (NO washout), U87-CD4-CXCR4 cells, % cell death @ 5mM compound; settings: human, u87-cd4-cxcr4, 5000 µM

Row | SMILES | % Cell Death [1] | % Cell Death [2] | % Cell Death [3] | % Cell Death [4] | % Cell Death [5] | % Cell Death [6]
1 | Cc1ccccc1OCCSc1nc2ccc(NC(=O)c3cccs3)cc2s1 | 110 | 101 | 103 | 81 | 107 | 106
2 | CCCCCCc1cc(O)c2c3c(c(=O)oc2c1)CCC(C)C3 (stereo not given) | 16 | 20 | 16 | 16 | 26 | 9
3 | CC(C)(C)c1ccc(O)c(CNC2CCCCC2)c1 | 108 | 66 | 69 | 96 | 132 | 101
4 | CCCCc1ccc(NS(=O)(=O)c2cc3c4c(c2)CCN4C(=O)CC3)cc1 | 6 | 20 | 47 | 1 | 85 | 93
5 | CN(C)CCCNCc1ccc(-c2ccc(F)c(Cl)c2)o1.Cl | 20 | 27 | 16 | -17 | 8 | -24
6 | CCOc1ccc2c(c1)CN(Cc1ccc(Cl)cc1)CO2 | 8 | 32 | 11 | -14 | 13 | 20
7 | O=C1c2ccccc2C2=Nc3ccccc3SC(c3cccc(F)c3)C12 (stereo not given) | 11 | 20 | -3 | 28 | 7 | 4
8 | COc1ccc2c(c1OC)C(=O)N1c3ccccc3N=C(c3ccc(C)cc3)CC21 (stereo not given) | 87 | 72 | 17 | 1 | 78 | 102
9 | Cc1ccc(-c2cc3c(nn2)-c2ccccc2C3=O)cc1 | 46 | 57 | 48 | 58 | 106 | 96
10 | O=C(Nc1ccc(Cl)cc1)N1CCN(c2ccc3nncn3n2)CC1 | 108 | 22 | 83 | 87 | 92 | 98
11 | CC(C)c1ccc(CNCC(O)c2ccccc2)cc1.Cl (stereo not given) | -53 | 29 | -1 | -18 | 14 | 3
12 | CC1CC2=C(CC1CNCCCN(C)C)C(C)(C)CCC2 (stereo not given) | -1 | 36 | -9 | 23 | 19 | -30
13 | CCC(O)c1ccc(Br)cc1NC(=O)c1cccc(Cl)c1 (stereo not given) | -44 | 11 | -24 | 28 | 6 | -37
14 | O=C(NNc1cc(N2CCCC2)nc(N2CCCC2)n1)c1ccccc1 | 61 | 29 | 15 | 53 | 27 | 8
15 | CC1CN(C(=O)c2sc3ccccc3c2Cl)CC(C)O1 (stereo not given) | 107 | 47 | 7 | 45 | 124 | 105
16 | COc1ccc(C(=O)NC(c2ccc(Cl)cc2Cl)c2cc(Cl)c3cccnc3c2O)cc1 (stereo not given) | 42 | 58 | 1 | 18 | 84 | 102
17 | Oc1ccccc1CN1CCC2(CCCN(Cc3ccccc3F)C2)C1 (stereo not given) | -2 | 15 | 36 | 1 | 44 | 39
18 | CN(C)c1ccc(C(O)(c2ccc(N(C)C)cc2)c2ccc(N(C)C)cc2)cc1 [METHYLROSANILINE] | 2 | 98 | 3 | -2 | 23 | 71
19 | CCCCOc1ccc(C(=O)Nc2cc(C)on2)cc1 | 54 | 31 | -17 | -14 | 4 | 33
20 | Cn1c(=O)c2cc(C(=O)NCCCN3CCCCCC3)sc2c2ccccc21 | 4 | 29 | 35 | -51 | 23 | 29
21 | COc1ccc(CCN2CCC(CN(C)Cc3cnn(-c4ccccc4)c3)CC2)cc1 | 33 | 53 | 68 | 16 | 110 | 93
22 | CCCCNc1nc(NC(C)(C)C)nc(NC(C)(C)C)n1 | -21 | 61 | 2 | 18 | -7 | -2
23 | COc1ccc2sc(N(Cc3cccnc3)C(=O)c3ccc(C#N)cc3)nc2c1 | -25 | 29 | 2 | -25 | 2 | -31
24 | CCOc1cc(CNC(C)C(O)c2ccccc2)cc(Cl)c1OCC (stereo not given) | 40 | 89 | 32 | 25 | 67 | 73
25 | O=C(CCc1ccccc1)c1ccccc1OCC(O)CN1CCCCC1 (stereo not given) | 53 | 44 | 12 | 77 | 136 | 93
26 | N#Cc1nc(Cc2cccc3ccccc23)oc1N1CCN(C(c2ccccc2)c2ccccc2)CC1 | 112 | 101 | 78 | 93 | 109 | -30
27 | COc1ccc(-n2ccnc2SCC(=O)Nc2cc(C)ccc2C)c(OC)c1 | 18 | 54 | 32 | -16 | 71 | 78
28 | O=C(Nc1ccc(F)c(Cl)c1)Nc1ccc(Cl)c(Cl)c1 | -19 | 4 | -6 | -9 | 22 | -12
29 | Oc1c2c(nc3cc(-c4ccccc4)nn13)CCCC2 | 37 | 6 | 26 | -10 | 1 | -22
30 | CCOC(=O)c1cnc2ccc(CC)cc2c1O | 1 | 22 | 13 | -25 | 21 | 42
